In patent US12606572B2, “Substituted heterocycles and uses thereof” (Kumquat Biosciences Inc., priority 2023, dated 2026) one finds IC50 data, which are given here for 6 compounds.

pIC50: −log10 of the molar value.

For this experiment, the target named is T1, KRAS WT (Homo sapiens, UniProt P01116).
T1 construct: made in house; host or cells: E. coli BL21 (DE3)
T1 sequence (P01116 1-188 isoform P01116-2): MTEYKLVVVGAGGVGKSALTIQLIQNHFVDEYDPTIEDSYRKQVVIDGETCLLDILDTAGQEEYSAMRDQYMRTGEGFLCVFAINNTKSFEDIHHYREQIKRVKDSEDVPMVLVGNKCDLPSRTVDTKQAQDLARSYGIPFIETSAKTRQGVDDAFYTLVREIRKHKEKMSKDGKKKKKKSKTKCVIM
The experiment can be described thus: HTRF assay, interaction of GST-tagged K-Ras with His-tagged hSOS1 (KRAS wildtype). Type of experiment: biochemical. As to conditions: <500 nM, read-out: Inhibition of KRAS WT (IC50). From the text: This assay can be also used to assess a selective inhibition or reduction of signaling output of a mutant Ras protein relative to a wildtype, or relative to a different mutant Ras protein. For example, the equilibrium interaction of wildtype KRAS or K-Ras mutant (e.g., wildtype or a mutant thereof) with SOS1 (e.g., hSOS1) can be assessed as a proxy or an indication for the ability of a subject compound to bind and inhibit Ras protein. The HTRF assay detects from (i) a fluorescence resonance energy transfer (FRET) donor (e.g., antiGST-Europium) that is bound to GST-tagged K-Ras mutant to (ii) a FRET acceptor (e.g., anti-6His-XL665) bound to a His-tagged hSOS1.
The assay buffer can contain ˜5 mM HEPES pH 7.4, ˜150 mM NaCl, ˜1 mM DTT, 0.05% BSA and 0.0025% (v/v) Igepal. A Ras working solution is prepared in an assay buffer containing typically a suitable amount of the protein construct (e.g., GST-tagged K-Ras mutant) and the FRET donor (e.g., antiGST-Eu(K) from Cisbio, France). A SOS1 working solution is prepared in an assay buffer containing suitable amount of the protein construct (e.g., His-hSOS1) and the FRET acceptor (e.g., anti-6His-XL665 from Cisbio, France). A suitable amount of the protein construct will depend on the range of activity or range of IC50 values being detected or under investigation. For detecting an IC50 within a range of 500 nM, the protein constructs of the same range of molarity can be utilized.
A fixed volume of DMSO with or without test compound is transferred into a 384-well plate. Ras working solution is added to all wells of the test plate. SOS1 working solution is added to all wells except for those that are subsequently filled with inhibitor control solution. Upon incubation for about 10 minutes or longer, the fluorescence is measured with a M1000Pro plate reader (Tecan) using HTRF detection (excitation 337 nm, emission 1: 620 nm, emission 2: 665 nm). Compounds are tested in duplicate at different concentrations (for example, 10 μM, 2.5 μM, 0.63 μM, 0.16 μM, 0.04 μM, 0.01 μM test compound). The ratiometric data (i.e., emission 2 divided by emission 1) is used to calculate IC50 values against Ras using GraphPad Prism (GraphPad software). Signaling output measured in terms of IC50 values can be obtained and a ratio of IC50 against one mutant relative to another mutant can be calculated. For instance, a selective reduction of K-Ras G12S signaling output can be evidenced by a ratio greater than one. In particular, a selective reduction of K-Ras G12S signaling relative to K-Ras WT signaling is evidenced if the ratio of IC50 (against K-Ras WT) to IC50 (against K-Ras G12S) is greater than 1.
For orientation: In TR-FRET formats the signal depends on donor and acceptor labels being close together.
What is called pIC50 is the IC50 on a negative log10 scale, so that one unit is a factor of ten. Take `CC1([C@@H]2[C@H](CN3CCOc4c(Cl)c(-c5ccc(F)c6sc(N)c(C#N)c56)c(F)c5nc(OC[C@@]67CCCN6C[C@H](F)C7)nc3c45)CN2C(=O)n2ccnc2)CC1` [Compound 485, 4-(4-(((2S,3R)-1-(1H-imidazole-1-carbonyl)-2-(1-methylcyclopropyl)azetidin-3-yl)methyl)-8-chloro-10-fluoro-2-(((2R,7aS)-2-fluorotetrahydro-1H-pyrrolizin-7a(5H)-yl)methoxy)-5,6-dihydro-4H-[1,4]oxazepino [5,6,7-de]quinazolin-9-yl)-2-amino-7-fluorobenzo[b] thiophene-3-carbonitrile]: the pIC50 was over 6.30.

Take `Cc1cn(C(=O)N2CC[C@@H](N3C[C@H](C)Oc4cc(-c5cc(N)c(F)c(C)c5C(F)(F)F)c(F)c5nc(OC[C@@]67CCCN6C[C@H](F)C7)nc3c45)[C@H]2C)c(C)n1` [Compound 415, ((2R,3R)-3-((S)-9-(5-amino-4-fluoro-3-methyl-2-(trifluoromethyl)phenyl)-10-fluoro-2-(((2R,7aS)-2-fluorotetrahydro-1H-pyrrolizin-7a(5H)-yl)methoxy)-6-methyl-5,6-dihydro-4H-[1,4]oxazepino [5,6,7-de]quinazolin-4-yl)-2-methylpyrrolidin-1-yl)(2,4-dimethyl-1H-imidazol-1-yl)methanone]: the pIC50 was over 6.30.

As for `C[C@H](O)[C@H]1COc2c(Cl)c(-c3ccc(F)c4sc(N)c(C#N)c34)c(F)c3nc(OC[C@@]45CCCN4C[C@H](F)C5)nc(c23)N1C1CC(CN(C)C(=O)n2ccnc2)C1` (stereo partly drawn) [Compound 482, N-((3-((5R)-9-(2-amino-3-cyano-7-fluorobenzo[b]thiophen-4-yl)-8-chloro-10-fluoro-2-(((2R,7aS)-2-fluorotetrahydro-1H-pyrrolizin-7a(5H)-yl)methoxy)-5-((S)-1-hydroxyethyl)-5,6-dihydro-4H-[1,4]oxazepino [5,6,7-de]quinazolin-4-yl)cyclobutyl)methyl)-N-methyl-1H-imidazole-1-carboxamide], the pIC50 was over 6.30.

Turning to `CC(CN(C)C(=O)n1ccnc1)N1c2nc(OC[C@@]34CCCN3C[C@H](F)C4)nc3c(F)c(-c4ccc(F)c5sc(N)c(C#N)c45)c(Cl)c(c23)OC[C@@H]1[C@H](C)O` (stereo partly drawn) [Compound 467, N-(2-((5R)-9-(2-amino-3-cyano-7-fluorobenzo[b]thiophen-4-yl)-8-chloro-10-fluoro-2-(((2R,7aS)-2-fluorotetrahydro-1H-pyrrolizin-7a(5H)-yl)methoxy)-5-((S)-1-hydroxyethyl)-5,6-dihydro-4H-[1,4]oxazepino[5,6,7-de]quinazolin-4-yl)propyl)-N-methyl-1H-imidazole-1-carboxamide], the pIC50 was over 6.30.

Regarding `C[C@H]1COc2c(Cl)c(-c3ccc(F)c4sc(N)c(C#N)c34)c(F)c3nc(OC[C@@]45CCCN4C[C@H](F)C5)nc(c23)N1C[C@@H]1CN(C(=O)n2ccnc2)[C@@H]1C1(C)CC1` (single isomer, unassigned) [Compound 473], the pIC50 was over 6.30.

In the case of `N#Cc1cn(C(=O)N2CC(CN3CCOc4c(Cl)c(-c5ccc(F)c6sc(N)c(C#N)c56)c(F)c5nc(OC[C@@]67CCCN6C[C@H](F)C7)nc3c45)C2)cn1` [Compound 478, 1-(3-((9-(2-amino-3-cyano-7-fluorobenzo[b]thiophen-4-yl)-8-chloro-10-fluoro-2-(((2R,7aS)-2-fluorotetrahydro-1H-pyrrolizin-7a(5H)-yl)methoxy)-5,6-dihydro-4H-[1,4]oxazepino[5,6,7-de]quinazolin-4-yl)methyl)azetidine-1-carbonyl)-1H-imidazole-4-carbonitrile], the pIC50 is over 6.30.
